The values below come from paper PMC8778187, “A New Oxygen Containing Pyclen-Type Ligand as a Manganese(II) Binder for MRI and ^52Mn PET Applications: Equilibrium, Kinetic, Relaxometric, Structural and Radiochemical Studies” (Molecules, 2022).

Data set [1] is described as follows: 1H relaxometry: r1p and r2p relaxivity of Mn(II) complexes. The data set is classed as physicochemical. The following applies: for r1p / r2p: Mn(II) complex, pH = 7.4. The procedure: The relaxivity of Mn(II) complexes is one of the most important parameters that directly correlates with its MRI efficacy. Relaxivity is defined as the longitudinal (r1p) and transverse (r2p) water proton relaxation rate enhancement, provided by 1.0 mM concentration of the paramagnetic species. The relaxivity (r1p and r2p) of the Mn(II) complexes were determined using relaxometers operating at 0.49 T and 1.41 T field strength, in a HEPES buffer (I = 0.15 M NaCl) at different temperatures from the slopes of plots 1/T1,2 vs. (Mn(II)) for 4 concentrations of Mn(II) (data shown in Supporting Information Figures S24 and S25), and they are compared in Table 4.
The ^1H longitudinal (T1) and transverse (T2) relaxation times were measured by using Bruker Minispec MQ-20 and MQ-60 NMR analyzers (Bruker corporation, Billerica, MA, USA). The temperature of the sample holder was set at 25.0 or 37 (±0.2) °C, and controlled with a circulating water bath thermostat. The T1 values of the samples were determined by means of the inversion recovery method (180°–τ–90°), averaging 4–6 data points obtained at 12 different τ delay times, while T2 data were collected by using the Carl–Purcell–Meiboom–Gill (CPMG) spin-echo pulse sequence. Relaxivities were determined by published procedures (from the slopes of the plots of 1/T1,2 vs. (Mn(II)) for 4 concentrations of Mn(II)), in samples of 0.3–0.4 mL volume (data shown in Figures S24 and S25, Supplementary Information). The pH were set by either using a 0.05 M 4-(2-hydroxyethyl)-1-piperazine-ethanesulfonic acid (HEPES) buffer (pH = 7.4) or monitored (pH profiles) using a Metrohm 827 pH lab pH meter and a Metrohm 6.0234.100 combined electrode, in the pH range of 1.75–11.8.

Data set [2] can be described thus: Metal exchange (transmetalation) with Zn(II) followed by T2 relaxometry. The data set is classed as physicochemical. From the text:
The kinetic inertness of the complexes considered for in vivo applications is an important parameter. It can be characterized by using various approaches. One of the possibilities is to study the rates of dissociation of the complexes, by following the transmetalation reactions occurring between the complex and the large excess (applied to ensure pseudo-first-order conditions) of a suitable exchanging metal ions (essential metal ions, such as Zn(II) or Cu(II) are often used for this purpose). The rates of dissociation reactions are explored as a function of pH (in a wide pH range) as well as in a wide metal ion concentration range, in order to obtain information about the contribution of various mechanisms (spontaneous, acid-, or metal-assisted dissociation). […] Results obtained for different complexes under the same conditions can be compared, and the order of relative inertness can be accessed rapidly. Finally, in the field of nuclear medicine, the “serum stability” is often determined, which, in fact, reflects dissociation in the blood serum (i.e., the dissociation initiated by the serum components). Upon the dissociation of the complex, the Mn(II) reacts with the serum components (HSA for instance), which results in a considerable relaxivity enhancement caused by the formation of Mn(II) species with a longer rotational correlation time (a remarkable increase in molecular mass). Therefore, ^1H relaxometry is an easily accessible tool for following the transmetalation/transchelation reactions of paramagnetic complexes occurring in blood serum.
Metal exchange reactions occurring with Zn(II) at pH = 6.0: first, we evaluated the rate of the metal exchange reaction occurring with Zn(II) under the conditions proposed by P. Caravan and coworkers, in order to have an idea of how the replacement of the secondary amine group for an etheric oxygen in the rim of the pyclen macrocycle affects the inertness of its corresponding Mn(II) complex. The plot of the 1/T2 values as a function of time for the [Mn(3,9-OPC2A)] and [Mn(3,9-PC2A)] complexes are shown in Figure S26 (Supporting Information). Fitting the measured data for the [Mn(3,9-OPC2A)] by the monoexponential function gives the rate constant kobs = (1.74 ± 0.04) × 10^−5 s^−1.
The inertness of the [Mn(3,9-OPC2A)] complex was studied by various methods. The transmetalation reaction initiated by the Zn(II) ions was monitored by measuring the T2 relaxation times as a function of time at pH = 6.0, set by a 50 mM 2-(N-morpholino)ethanesulfonic acid (MES) buffer in the presence of 25 equivalents of Zn(II) ions at 37 °C. These conditions were recently used by P. Caravan et al., and employed in the present study to obtain data that can be directly compared with that of [Mn(PyC3A)]^– [6].

[3] abbreviates: pH = 6.0, 25 equivalents of Zn(II), 37 °C.

With `O=C([O-])CN1CCOCCN(CC(=O)[O-])Cc2cccc(n2)C1.[Mn+2]` [[Mn(3,9-OPC2A)]], the “r1p in pure aqueous solution” value in data set [1] (1.41 T, 25 °C) was found to be 2.70 mM⁻¹ s⁻¹. Further, the “r1p near pH = 1.8” value in data set [1] (1.41 T, 25 °C, complex protonated and dissociated at low pH) is on record as 6.51 mM^−1s^−1. The kobs result in data set [2] (pH = 6.0 (50 mM MES), 25 equivalents of Zn(II), 37 °C) is “(1.74 ± 0.04) × 10^−5 s^−1”. Besides, in data set [2] (setting [3]), the “kobs lower than that of [Mn(PyC3A)]” value is on record as about 40 times and the “kobs smaller than that of [Mn(3,9-PC2A)]” value is reported as “circa 20 times”. Also, in data set [2] (pH = 7.4, large Zn(II) excess, from the rate constant), the “half-life of dissociation at pH = 7.4” value came out at 40.0 h.
Regarding `O=C(O)CN1CCOCCN(CC(=O)O)Cc2cccc(n2)C1` [H23,9-OPC2A, 6-Oxa-3,9,15-triazabicyclo(9.3.1)pentadeca-1(15),11,13-triene-3,9-diacetic acid], the r1p is recorded as 3.13(2) mM^−1s^−1 in data set [1] (0.49 T, 25 °C); 2.54(1) mM^−1s^−1 in data set [1] (0.49 T, 37 °C); 2.72(2) mM^−1s^−1 in data set [1] (1.41 T, 25 °C); 2.06(1) mM^−1s^−1 in data set [1] (1.41 T, 37 °C). The r2p in data set [1] (0.49 T, 25 °C) is 5.15(3) mM^−1s^−1; in data set [1] (0.49 T, 37 °C), 4.17(4) mM^−1s^−1; in data set [1] (1.41 T, 25 °C) it was 9.90(5) mM^−1s^−1; in data set [1] (1.41 T, 37 °C), 7.37(3) mM^−1s^−1.
